pEC50: −log10 of the molar value. Where two headings read alike, the source gives them in different places. Starred links: 1 amine or outer side, 2 acyl side, 3 side chain; linkers in the order of their positions; H or OH if unused. Non-standard residues stand in square brackets, D forms with d. Groups on a side chain read outwards from the residue. No end group written: not given here. *: point of attachment. C18 diacid = O=C(O)CCCCCCCCCCCCCCCCC(=O)*; αMePhe(2-F) = C[C@](N)(Cc1ccccc1F)C(=O)O; γGlu = O=C(O)[C@H](CCC(=O)[*:2])N[*:1]; αMe4Pal = C[C@](N)(Cc1ccncc1)C(=O)O; αMeY = C[C@](N)(Cc1ccc(O)cc1)C(=O)O; 4Pal = N[C@@H](Cc1ccncc1)C(=O)O; αMeL = CC(C)C[C@](C)(N)C(=O)O; Orn = NCCC[C@H](N)C(=O)O; Dab = NCC[C@H](N)C(=O)O; AEEA = NCCOCCOCC(=O)O; Aib = CC(C)(N)C(=O)O
Columns and labels:
Assay type in all cases: cell-based
hGIPR [1] = biological target: T1, hGIPR (Homo sapiens, UniProt P48546); assay: Functional cAMP activity in the presence of 1% HSA; details: read-out: cAMP Rel EC50, hGIPR
T1 sequence (P48546 22-466): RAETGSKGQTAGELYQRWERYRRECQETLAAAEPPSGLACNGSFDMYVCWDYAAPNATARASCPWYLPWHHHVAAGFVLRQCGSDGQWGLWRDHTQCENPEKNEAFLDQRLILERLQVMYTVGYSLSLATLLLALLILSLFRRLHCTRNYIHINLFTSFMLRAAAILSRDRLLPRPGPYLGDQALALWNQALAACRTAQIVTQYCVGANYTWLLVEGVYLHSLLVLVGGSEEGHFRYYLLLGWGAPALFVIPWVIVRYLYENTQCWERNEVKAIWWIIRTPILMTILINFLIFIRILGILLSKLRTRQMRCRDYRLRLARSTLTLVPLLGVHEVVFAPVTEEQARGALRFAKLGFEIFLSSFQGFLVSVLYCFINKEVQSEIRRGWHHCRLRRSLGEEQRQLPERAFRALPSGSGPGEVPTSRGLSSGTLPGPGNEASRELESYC

human GcgR = human GcgR (Homo sapiens, UniProt P47871); assay: Functional cAMP activity in the presence of 1% HSA; details: read-out: cAMP Rel EC50, hGcgR
Sequence of human GcgR (P47871 26-477): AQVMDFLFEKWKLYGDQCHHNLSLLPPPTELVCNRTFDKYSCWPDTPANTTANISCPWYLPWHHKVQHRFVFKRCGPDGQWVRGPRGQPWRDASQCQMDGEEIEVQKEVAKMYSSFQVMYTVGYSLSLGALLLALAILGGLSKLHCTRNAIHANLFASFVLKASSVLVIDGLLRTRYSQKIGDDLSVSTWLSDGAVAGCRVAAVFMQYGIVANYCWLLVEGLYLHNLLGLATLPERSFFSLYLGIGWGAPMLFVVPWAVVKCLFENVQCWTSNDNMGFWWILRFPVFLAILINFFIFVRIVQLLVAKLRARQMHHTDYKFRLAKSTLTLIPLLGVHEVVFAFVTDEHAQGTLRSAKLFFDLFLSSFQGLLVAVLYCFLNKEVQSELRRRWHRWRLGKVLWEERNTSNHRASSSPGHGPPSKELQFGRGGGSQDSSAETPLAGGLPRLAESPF

hGIPR [2] = biological target: T1, hGIPR; assay: Functional cAMP activation in the presence of 0.1% casein (no HSA); details: read-out: Relative cAMP EC50, hGIPR;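 on Relative cAMP EC50, hGIPR: intracellular cAMP rise after 30 min at 37 °C read by HTRF against a standard curve, scaled between buffer alone (0%) and top control ligand concentration (100%), four-parameter fit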;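 on Relative cAMP EC50, hGLP-1R: intracellular cAMP rise after 30 min at 37 °C read by HTRF, normalized between buffer only (0%) and maximal control ligand (100%), four-parameter variable-slope fit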;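 on Relative cAMP EC50, hGcgR: intracellular cAMP rise after 30 min at 37 °C, read by HTRF against a cAMP standard curve, scaled from buffer only (0%) to maximal control ligand response (100%)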
hGLP-1R [3] = biological target: T2, hGLP-1R (Homo sapiens, UniProt P43220); assay: as above; details: read-out: Relative cAMP EC50, hGLP-1R;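 further: intracellular cAMP rise after 30 min at 37 °C read by HTRF, normalized between buffer only (0%) and maximal control ligand (100%), four-parameter variable-slope fit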
T2 sequence (P43220 24-463): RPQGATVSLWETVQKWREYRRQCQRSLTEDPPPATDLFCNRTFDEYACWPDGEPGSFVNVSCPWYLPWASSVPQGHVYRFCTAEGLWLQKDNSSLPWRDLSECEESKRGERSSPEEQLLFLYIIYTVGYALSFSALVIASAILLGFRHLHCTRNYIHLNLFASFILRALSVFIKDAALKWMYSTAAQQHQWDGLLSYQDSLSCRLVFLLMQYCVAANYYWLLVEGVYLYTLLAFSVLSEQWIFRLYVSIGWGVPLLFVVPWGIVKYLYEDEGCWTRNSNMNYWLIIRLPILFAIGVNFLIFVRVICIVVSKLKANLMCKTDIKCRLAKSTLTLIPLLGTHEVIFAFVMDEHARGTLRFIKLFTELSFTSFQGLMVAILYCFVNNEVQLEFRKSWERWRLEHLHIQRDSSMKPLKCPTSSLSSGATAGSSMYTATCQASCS

hGcgR = hGcgR (Homo sapiens, UniProt P47871); assay: as above; details: read-out: Relative cAMP EC50, hGcgR;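 further: intracellular cAMP rise after 30 min at 37 °C, read by HTRF against a cAMP standard curve, scaled from buffer only (0%) to maximal control ligand response (100%)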
Sequence of hGcgR (P47871 26-477): as the sequence (P47871 26-477) above

hGLP-1R [4] = biological target: T2, hGLP-1R; assay: Functional cAMP activity in the presence of 1% HSA; details: read-out: cAMP Rel EC50, hGLP-1R
[5] = in the presence of 0.1% casein (no HSA), geometric mean
[6] = HEK-293 clonal cell line, in the presence of 1% HSA, geometric mean of relative EC50

Compound	pEC50 (hGIPR [1])	pEC50 (human GcgR)	pEC50 (hGIPR [2]; [5])	pEC50 (hGLP-1R [3]; [5])	pEC50 (hGcgR; [5])	pEC50 (hGIPR [1]; [6])	pEC50 (human GcgR; [6])	pEC50 (hGIPR [2])	pEC50 (hGLP-1R [3])	pEC50 (hGcgR)	pEC50 (hGLP-1R [4])
H-Y[Aib]QGTFTSD[4Pal]SQ[αMeL]LD[Orn]K([Glu-γGlu-C18 diacid])AQ[αMe4Pal]AFIEYLLAGGPSSGAPPPSGSEE-NH2 [Example 1057]	7.59	5.56	9.89	8.29	8.28	–	–	–	–	–	–
H-Y[Aib]QGTFTSDFS[Orn][αMeL]LDKK([γGlu-γGlu-C18 diacid])AQ[Aib]AFIEYLLAGGPSSGAPPPEGSEE-NH2 [Example 1051]	–	–	9.76	8.08	7.99	7.49	5.74	–	–	–	–
H-Y[Aib]QGT[αMePhe(2-F)]TSD[4Pal]SILLDKK([γGlu-γGlu-C18 diacid])AQ[Aib]AFIEYLTEGGPSSGAPPPSGTE-NH2 [Example 554]	8.39	6.02	–	–	–	–	–	10.49	9.37	8.17	–
CC[C@H](C)[C@H](NC(=O)[C@H](Cc1ccccc1)NC(=O)[C@H](C)NC(=O)C(C)(C)NC(=O)[C@H](CCC(N)=O)NC(=O)[C@H](C)NC(=O)[C@H](CCCCNC(=O)COCCOCCNC(=O)CC[C@H](NC(=O)CCCCCCCCCCCCCCCCC(=O)O)C(=O)O)NC(=O)[C@H](CCCCN)NC(=O)[C@H](CC(=O)O)NC(=O)[C@H](CC(C)C)NC(=O)[C@](C)(CC(C)C)NC(=O)[C@H](CCCN)NC(=O)[C@H](CO)NC(=O)[C@H](Cc1ccccc1)NC(=O)[C@H](CC(=O)O)NC(=O)[C@H](CO)NC(=O)[C@@H](NC(=O)[C@H](Cc1ccccc1)NC(=O)[C@@H](NC(=O)CNC(=O)[C@H](CCC(N)=O)NC(=O)C(C)(C)NC(=O)[C@@H](N)Cc1ccc(O)cc1)[C@@H](C)O)[C@@H](C)O)C(=O)N[C@@H](CCC(=O)O)C(=O)N[C@@H](Cc1c[nH]c2ccccc12)C(=O)N[C@@H](CC(C)C)C(=O)N[C@@H](CC(C)C)C(=O)N[C@@H](CCC(=O)O)C(=O)NCC(=O)NCC(=O)N1CCC[C@H]1C(=O)N[C@@H](CO)C(=O)N[C@@H](CO)C(=O)NCC(=O)N[C@@H](C)C(=O)N1CCC[C@H]1C(=O)N1CCC[C@H]1C(=O)N1CCC[C@H]1C(=O)N[C@@H](Cc1ccncc1)C(=O)NCC(=O)N[C@@H](CO)C(N)=O [Example 251]	–	5.82	9.82	8.58	8.16	–	–	–	–	–	6.52
CC[C@H](C)[C@H](NC(=O)[C@H](CO)NC(=O)[C@H](Cc1ccc(O)cc1)NC(=O)[C@H](CC(=O)O)NC(=O)[C@H](CO)NC(=O)[C@@H](NC(=O)[C@H](Cc1ccccc1)NC(=O)[C@@H](NC(=O)CNC(=O)[C@H](CCC(=O)O)NC(=O)[C@H](C)NC(=O)[C@@H](N)Cc1ccc(O)cc1)[C@@H](C)O)[C@@H](C)CC)C(=O)N[C@@H](C)C(=O)N[C@@H](CCSC)C(=O)N[C@@H](CC(=O)O)C(=O)N[C@@H](CCCCN)C(=O)N[C@H](C(=O)N[C@@H](Cc1c[nH]cn1)C(=O)N[C@@H](CCC(N)=O)C(=O)N[C@@H](CCC(N)=O)C(=O)N[C@@H](CC(=O)O)C(=O)N[C@@H](Cc1ccccc1)C(=O)N[C@H](C(=O)N[C@@H](CC(N)=O)C(=O)N[C@@H](Cc1c[nH]c2ccccc12)C(=O)N[C@@H](CC(C)C)C(=O)N[C@@H](CC(C)C)C(=O)N[C@@H](C)C(=O)N[C@@H](CCC(N)=O)C(=O)N[C@@H](CCCCN)C(=O)NCC(=O)N[C@@H](CCCCN)C(=O)N[C@@H](CCCCN)C(=O)N[C@@H](CC(N)=O)C(=O)N[C@@H](CC(=O)O)C(=O)N[C@@H](Cc1c[nH]c2ccccc12)C(=O)N[C@@H](CCCCN)C(=O)N[C@@H](Cc1c[nH]cn1)C(=O)N[C@@H](CC(N)=O)C(=O)N[C@H](C(=O)N[C@H](C(=O)N[C@@H](CCC(N)=O)C(N)=O)[C@@H](C)O)[C@@H](C)CC)C(C)C)[C@@H](C)CC [hGIP 1-42 amide]	–	< 5.00	–	–	< 7.00	–	–	–	–	–	–
H-Y[Aib]QGTFTSD[4Pal]S[Orn][αMeL]LDKK([Glu-γGlu-C18 diacid])AQ[αMe4Pal]AFIEYLIAGGPSSGAPPPSGSEE-NH2 [Example 1060]	7.35	5.31	9.65	8.55	8.04	–	–	–	–	–	–
H-Y[Aib]QGTFTSD[4Pal]S[Orn][αMeL]LD[Orn]K([Glu-γGlu-C18 diacid])AQ[αMe4Pal]AFIEYLIAGGPSSGAPPPSGSEE-NH2 [Example 1061]	7.25	5.54	9.18	8.34	7.76	–	–	–	–	–	–
H-Y[Aib]QGTFTSDFS[Orn][αMeL]LD[Orn]K([γGlu-γGlu-C18 diacid])AQ[Aib]AFIE[αMe4Pal]LLAGGPSSGAPPPEGSEE-NH2 [Example 1053]	–	–	9.91	8.21	7.98	7.71	5.46	–	–	–	–
CC[C@H](C)[C@H](NC(=O)[C@H](Cc1ccccc1)NC(=O)[C@H](CCCN)NC(=O)C(C)(C)NC(=O)[C@H](CCC(N)=O)NC(=O)[C@H](C)NC(=O)[C@H](CCCCNC(=O)COCCOCCNC(=O)CC[C@H](NC(=O)CCCCCCCCCCCCCCCCCCC(=O)O)C(=O)O)NC(=O)[C@H](CCCN)NC(=O)[C@H](CC(=O)O)NC(=O)[C@H](CC(C)C)NC(=O)[C@](C)(CC(C)C)NC(=O)[C@@H](NC(=O)[C@H](CO)NC(=O)[C@H](Cc1ccncc1)NC(=O)[C@H](CC(=O)O)NC(=O)[C@H](CO)NC(=O)[C@@H](NC(=O)[C@](C)(Cc1ccccc1F)NC(=O)[C@@H](NC(=O)CNC(=O)[C@H](CCC(N)=O)NC(=O)C(C)(C)NC(=O)[C@@H](N)Cc1ccc(O)cc1)[C@@H](C)O)[C@@H](C)O)[C@@H](C)CC)C(=O)N[C@H](CCC(=O)O)C(=O)N[C@@](C)(Cc1ccc(O)cc1)C(=O)N[C@@H](CC(C)C)C(=O)N[C@@H](CC(C)C)C(=O)N[C@@H](CCC(=O)O)C(=O)NCC(=O)NCC(=O)N1CCC[C@H]1C(=O)N[C@@H](CO)C(=O)N[C@@H](CO)C(=O)NCC(=O)N[C@@H](CCC(=O)O)C(=O)N1CCC[C@H]1C(=O)N1CCC[C@H]1C(=O)N1CCC[C@H]1C(=O)N[C@@H](CO)C(N)=O [Example 365]	–	5.83	10.47	9.58	8.37	–	–	–	–	–	7.12
H-Y[Aib]QGTFTSD[4Pal]SQ[αMeL]LD[Orn]K([γGlu-γGlu-C18 diacid])AQ[αMe4Pal]AFIEYLLAGGPSSGAPPPSGSEE-NH2 [Example 1056]	7.53	5.78	10.03	8.37	8.40	–	–	–	–	–	–
H-Y[Aib]QGTFTSD[4Pal]S[Dab][αMeL]LD[Orn]K([γGlu-γGlu-C18 diacid])AQ[αMe4Pal]AFIE[αMe4Pal]LLAGGPSSGAPPPEGSEE-NH2 [Example 1055]	–	–	9.44	7.84	8.73	7.10	6.35	–	–	–	–
H-Y[Aib]QGTFTSD[4Pal]S[Orn][αMeL]LD[Orn]K([γGlu-γGlu-C18 diacid])AQ[αMe4Pal]AFIEYLIAGGPSSGAPPPSGSEE-NH2 [Example 1059]	7.31	6.13	9.33	8.34	8.12	–	–	–	–	–	–
H-Y[Aib]QGTFTSD[4Pal]S[Orn][αMeL]LD[Orn]K([Glu-Glu-γGlu-C18 diacid])AQ[αMe4Pal]AFIEYLIAGGPSSGAPPPSGSEE-NH2 [Example 1062]	7.17	5.62	9.14	8.11	8.06	–	–	–	–	–	–
H-Y[Aib]QGTFTSD[4Pal]S[Dab][αMeL]LDKK([AEEA-γGlu-C18 diacid])AQ[Aib]AFIEYLIE[Aib]GPSSGAPPPSGS-NH2 [Example 803]	–	–	9.63	8.69	8.01	–	–	–	–	–	–
Y[Aib]QGTFTSD[4Pal]SQ[αMeL]LD[Orn]K([dE-γGlu-C18 diacid])AQ[αMe4Pal]AFIE[αMeY]LLEGGPSSGAPPPSGSEE-NH2 [Example 1058]	7.34	5.84	9.86	8.35	8.24	–	–	–	–	–	–
H-Y[Aib]QGTFTSD[4Pal]SR[αMeL]LDKK([AEEA-γGlu-C18 diacid])AQ[Aib]AFIEYLIE[Aib]SPSSGAPPPSGS-NH2 [Example 807]	–	–	9.97	8.76	7.91	–	–	–	–	–	–
